Test results reported in ChEMBL document CHEMBL1145106, “The role of the side chain in determining relative delta- and kappa-affinity in C5'-substituted analogues of naltrindole” (J Med Chem, 2003).

Experiments:
[1] = target: T1, Delta-type opioid receptor (Homo sapiens, UniProt P41143); experiment: Ability to displace [3H]DPDPE from human recombinant Opioid receptor delta 1 in CHO cells; format: cell-based
Mu-type opioid receptor [2] = target: T2, Mu-type opioid receptor (Homo sapiens, UniProt P35372); experiment: Ability to displace [3H]DAMGO from human recombinant Opioid receptor mu 1 in CHO cells; format: cell-based
[3] = target: T3, Kappa-type opioid receptor (Homo sapiens, UniProt P41145); format: cell-based, CHO
Description: Ability to displace [3H]U-69593 from human recombinant Opioid receptor kappa 1 in CHO cells

[4] = target: T1, Delta-type opioid receptor; conditions: CHO
Description: Ability to displace DPDPE from human recombinant Opioid receptor delta 1 in CHO cells using [35S]- GTP-gamma S Assay

[5] = target: T3, Kappa-type opioid receptor; conditions: CHO
Description: Ability to displace U-69,593 from human recombinant Opioid receptor kappa 1 in CHO cells using [35S]- GTP-gamma S Assay

Mu-type opioid receptor [6] = target: T2, Mu-type opioid receptor; conditions: CHO
Description: Ability to displace DAMGO from human recombinant Opioid receptor mu 1 in CHO cells using [35S]- GTP-gamma S Assay

T3 sequence (P41145 whole entry): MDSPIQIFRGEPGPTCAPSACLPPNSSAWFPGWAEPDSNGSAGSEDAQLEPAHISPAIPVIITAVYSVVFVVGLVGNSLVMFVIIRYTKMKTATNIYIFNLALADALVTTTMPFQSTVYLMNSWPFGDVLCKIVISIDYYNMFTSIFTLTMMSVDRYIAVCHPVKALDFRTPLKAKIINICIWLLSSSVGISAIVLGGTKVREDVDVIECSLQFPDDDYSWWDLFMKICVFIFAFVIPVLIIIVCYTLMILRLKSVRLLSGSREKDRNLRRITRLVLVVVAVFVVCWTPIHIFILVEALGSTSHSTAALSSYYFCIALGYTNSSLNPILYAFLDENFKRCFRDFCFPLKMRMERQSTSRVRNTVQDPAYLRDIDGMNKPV
T2 sequence (P35372 whole entry): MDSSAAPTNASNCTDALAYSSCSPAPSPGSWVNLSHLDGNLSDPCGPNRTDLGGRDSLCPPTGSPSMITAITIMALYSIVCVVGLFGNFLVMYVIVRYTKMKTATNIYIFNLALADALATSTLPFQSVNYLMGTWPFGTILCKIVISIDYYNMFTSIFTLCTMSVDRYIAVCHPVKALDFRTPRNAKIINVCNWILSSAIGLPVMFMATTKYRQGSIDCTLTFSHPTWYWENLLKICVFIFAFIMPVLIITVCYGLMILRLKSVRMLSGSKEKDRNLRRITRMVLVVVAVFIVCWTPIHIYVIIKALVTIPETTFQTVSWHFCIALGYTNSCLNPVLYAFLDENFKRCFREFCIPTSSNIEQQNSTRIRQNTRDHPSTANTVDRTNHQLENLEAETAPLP
T1 sequence (P41143 whole entry): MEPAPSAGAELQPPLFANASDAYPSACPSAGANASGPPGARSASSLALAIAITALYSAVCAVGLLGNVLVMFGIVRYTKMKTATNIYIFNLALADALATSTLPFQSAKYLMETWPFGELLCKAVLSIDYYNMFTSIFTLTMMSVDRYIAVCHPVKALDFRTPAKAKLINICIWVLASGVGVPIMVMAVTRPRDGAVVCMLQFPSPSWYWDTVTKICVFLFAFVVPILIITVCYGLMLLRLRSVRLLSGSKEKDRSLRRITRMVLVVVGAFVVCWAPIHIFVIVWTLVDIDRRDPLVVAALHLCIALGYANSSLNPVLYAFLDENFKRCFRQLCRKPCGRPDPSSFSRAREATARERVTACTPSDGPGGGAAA

Structure (SMILES)	Ki [1] [nM]	Ki (Mu-type opioid receptor [2]) [nM]	Ki [3] [nM]	Ke [4] [nM]	Ke [5] [nM]	Ke (Mu-type opioid receptor [6]) [nM]
CCNC(=O)NCCc1ccc2[nH]c3c(c2c1)C[C@@]1(O)C2Cc4ccc(O)c5c4[C@@]1(CCN2CC1CC1)[C@H]3O5	2.43	37.6	12.3	0.65	2.47	1.6
CCCCCCCNC(=O)c1ccc2[nH]c3c(c2c1)C[C@@]1(O)C2Cc4ccc(O)c5c4[C@@]1(CCN2CC1CC1)[C@H]3O5	70.2	61.9	21.9	6.95	0.29	6.86
COc1ccc(CNC(=O)c2ccc3[nH]c4c(c3c2)C[C@@]2(O)C3Cc5ccc(O)c6c5[C@@]2(CCN3CC2CC2)[C@H]4O6)cc1	7.41	4.64	2.11	6.2	0.28	0.94
O=C(NCCCCc1ccccc1)c1ccc2[nH]c3c(c2c1)C[C@@]1(O)C2Cc4ccc(O)c5c4[C@@]1(CCN2CC1CC1)[C@H]3O5	59.5	37	6.18	5.15	0.26	2.78
CC(C)CC(=N)NCCc1ccc2[nH]c3c(c2c1)C[C@@]1(O)C2Cc4ccc(O)c5c4[C@@]1(CCN2CC1CC1)[C@H]3O5	20.1	47.4	1.39	5.23	0.32	14.7
O=C(NCCc1ccccc1)c1ccc2[nH]c3c(c2c1)C[C@@]1(O)C2Cc4ccc(O)c5c4[C@@]1(CCN2CC1CC1)[C@H]3O5	3.53	23.5	2.21	1.21	0.17	2.7
CCC/N=C(\N)Cc1ccc2[nH]c3c(c2c1)C[C@@]1(O)C2Cc4ccc(O)c5c4[C@@]1(CCN2CC1CC1)[C@H]3O5				4.41	0.05	3.19
CCCC(=N)NCCc1ccc2[nH]c3c(c2c1)C[C@@]1(O)C2Cc4ccc(O)c5c4[C@@]1(CCN2CC1CC1)[C@H]3O5	27.6	40.8	0.25	1.89	0.18	4.21
CC(=N)NCCc1ccc2[nH]c3c(c2c1)C[C@@]1(O)C2Cc4ccc(O)c5c4[C@@]1(CCN2CC1CC1)[C@H]3O5	21.4	22.3	0.29	1.79	0.21	3.78
CCCCC(=N)NCCc1ccc2[nH]c3c(c2c1)C[C@@]1(O)C2Cc4ccc(O)c5c4[C@@]1(CCN2CC1CC1)[C@H]3O5	38.2	219	0.3	3.31	0.17	5.33
CCCCNC(=O)NCCc1ccc2[nH]c3c(c2c1)C[C@@]1(O)C2Cc4ccc(O)c5c4[C@@]1(CCN2CC1CC1)[C@H]3O5	2.6	4.8	6.33	0.53	1.52	1.63
CCC(=O)NCCc1ccc2[nH]c3c(c2c1)C[C@@]1(O)C2Cc4ccc(O)c5c4[C@@]1(CCN2CC1CC1)[C@H]3O5	3.12	23	1.57	0.38	0.48	4.94
CCCCCCC/N=C(\N)Cc1ccc2[nH]c3c(c2c1)C[C@@]1(O)C2Cc4ccc(O)c5c4[C@@]1(CCN2CC1CC1)[C@H]3O5				5.83	0.37	2.04
CCC(=N)NCCc1ccc2[nH]c3c(c2c1)C[C@@]1(O)C2Cc4ccc(O)c5c4[C@@]1(CCN2CC1CC1)[C@H]3O5	21.8	26.4	0.28	1.77	0.24	4.7
CCCNC(=N)Cc1ccc2[nH]c3c(c2c1)C[C@@]1(O)C2Cc4ccc(O)c5c4[C@@]1(CCN2CC1CC1)[C@H]3O5	5.29	13.5	1.6			
O=C(NCc1ccccc1)c1ccc2[nH]c3c(c2c1)C[C@@]1(O)C2Cc4ccc(O)c5c4[C@@]1(CCN2CC1CC1)[C@H]3O5	11.2	43.9	10.3	2.99	0.73	4.4
CCCCC(=O)NCCc1ccc2[nH]c3c(c2c1)C[C@@]1(O)C2Cc4ccc(O)c5c4[C@@]1(CCN2CC1CC1)[C@H]3O5	7.67	31.6	0.68	0.23	0.46	3.37
CCCCC/N=C(\N)Cc1ccc2[nH]c3c(c2c1)C[C@@]1(O)C2Cc4ccc(O)c5c4[C@@]1(CCN2CC1CC1)[C@H]3O5				3.83	0.21	5.61
CCCC(=O)NCCc1ccc2[nH]c3c(c2c1)C[C@@]1(O)C2Cc4ccc(O)c5c4[C@@]1(CCN2CC1CC1)[C@H]3O5	3.7	31	0.85	0.3	0.35	3.17
CCCCCCNC(=O)NCCc1ccc2[nH]c3c(c2c1)C[C@@]1(O)C2Cc4ccc(O)c5c4[C@@]1(CCN2CC1CC1)[C@H]3O5	2.25	13.6	8.13	1.04	1.71	1.79
CCCCCNC(=N)Cc1ccc2[nH]c3c(c2c1)C[C@@]1(O)C2Cc4ccc(O)c5c4[C@@]1(CCN2CC1CC1)[C@H]3O5	17	25.3	1.44			
CCCCCCCNC(=N)Cc1ccc2[nH]c3c(c2c1)C[C@@]1(O)C2Cc4ccc(O)c5c4[C@@]1(CCN2CC1CC1)[C@H]3O5	7.33	56.6	5.61			
